The values below are quoted from earlier work in patent US20240136011A1, “SYSTEM, METHOD, AND COMPUTER PROGRAM FOR PHYSICS-BASED BINDING AFFINITY ESTIMATION” (BOARD OF TRUSTEES OF THE UNIVERSITY OF ARKANSAS, priority 2022, published 2024).

For the series, the target named is human fibroblast growth factor 1 (hFGF1) (Homo sapiens, UniProt P05230). To be noted: MM-GBSA; recent computational studies.
Chain of human fibroblast growth factor 1 (hFGF1) (P05230 whole entry): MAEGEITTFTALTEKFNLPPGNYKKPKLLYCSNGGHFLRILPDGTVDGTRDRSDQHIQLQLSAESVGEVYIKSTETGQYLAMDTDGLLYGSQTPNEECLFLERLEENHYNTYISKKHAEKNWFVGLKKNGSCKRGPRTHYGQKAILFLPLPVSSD

As to heparin hexasaccharide, the “ΔG°” value is -95 ± 11 kcal/mol.
